Among the data in ChEMBL document CHEMBL3991601, “The target landscape of clinical kinase drugs” (Science, 2017) are Kd values, retold here.

Active and inactive are the calls of the source.

As usually defined, the Kd is the equilibrium constant for the complex coming apart.

For assay [1], the target named is Elongation factor Tu, mitochondrial (Homo sapiens, UniProt P49411).
In assay [2] the target is T1, Ribosyldihydronicotinamide dehydrogenase [quinone] (Homo sapiens, UniProt P16083).
T1 sequence (P16083 whole entry): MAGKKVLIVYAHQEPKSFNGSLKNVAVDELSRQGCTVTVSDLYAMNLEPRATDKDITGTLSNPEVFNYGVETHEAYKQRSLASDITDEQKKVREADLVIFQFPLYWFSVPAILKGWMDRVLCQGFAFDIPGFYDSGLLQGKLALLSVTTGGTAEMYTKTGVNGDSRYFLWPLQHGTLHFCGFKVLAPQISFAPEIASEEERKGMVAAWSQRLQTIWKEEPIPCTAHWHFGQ

Assay [3] has as its target T2, Dynamin-like GTPase OPA1, mitochondrial (Homo sapiens, UniProt O60313).
T2 sequence (O60313 whole entry): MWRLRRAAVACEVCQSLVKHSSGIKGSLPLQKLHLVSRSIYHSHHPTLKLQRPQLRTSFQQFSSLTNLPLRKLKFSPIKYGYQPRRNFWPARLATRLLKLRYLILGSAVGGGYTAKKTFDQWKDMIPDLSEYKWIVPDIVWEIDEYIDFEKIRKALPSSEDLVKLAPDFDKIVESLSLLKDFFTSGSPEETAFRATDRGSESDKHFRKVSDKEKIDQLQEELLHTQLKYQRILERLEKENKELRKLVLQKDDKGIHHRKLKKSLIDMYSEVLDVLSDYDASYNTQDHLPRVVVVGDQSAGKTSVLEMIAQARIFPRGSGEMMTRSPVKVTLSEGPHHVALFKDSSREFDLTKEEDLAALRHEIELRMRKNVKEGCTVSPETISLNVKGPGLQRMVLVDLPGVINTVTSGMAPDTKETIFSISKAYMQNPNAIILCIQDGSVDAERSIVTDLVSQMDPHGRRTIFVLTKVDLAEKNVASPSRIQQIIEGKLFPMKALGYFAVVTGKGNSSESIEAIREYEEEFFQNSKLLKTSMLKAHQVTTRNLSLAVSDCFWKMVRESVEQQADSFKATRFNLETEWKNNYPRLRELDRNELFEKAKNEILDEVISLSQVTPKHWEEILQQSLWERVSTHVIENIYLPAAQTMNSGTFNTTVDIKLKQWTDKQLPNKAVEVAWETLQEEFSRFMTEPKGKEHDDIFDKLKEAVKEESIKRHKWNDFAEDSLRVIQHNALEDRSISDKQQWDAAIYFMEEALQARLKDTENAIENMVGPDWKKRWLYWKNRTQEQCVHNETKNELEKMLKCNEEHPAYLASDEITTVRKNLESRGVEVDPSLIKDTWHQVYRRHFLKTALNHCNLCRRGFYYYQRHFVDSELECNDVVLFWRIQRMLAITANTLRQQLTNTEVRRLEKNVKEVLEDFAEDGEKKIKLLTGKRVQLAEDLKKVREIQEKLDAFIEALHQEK

The target of assay [4] is Serine/threonine-protein kinase SIK2 (Homo sapiens, UniProt Q9H0K1).
Serine/threonine-protein kinase SIK2, sequence (Q9H0K1 whole entry): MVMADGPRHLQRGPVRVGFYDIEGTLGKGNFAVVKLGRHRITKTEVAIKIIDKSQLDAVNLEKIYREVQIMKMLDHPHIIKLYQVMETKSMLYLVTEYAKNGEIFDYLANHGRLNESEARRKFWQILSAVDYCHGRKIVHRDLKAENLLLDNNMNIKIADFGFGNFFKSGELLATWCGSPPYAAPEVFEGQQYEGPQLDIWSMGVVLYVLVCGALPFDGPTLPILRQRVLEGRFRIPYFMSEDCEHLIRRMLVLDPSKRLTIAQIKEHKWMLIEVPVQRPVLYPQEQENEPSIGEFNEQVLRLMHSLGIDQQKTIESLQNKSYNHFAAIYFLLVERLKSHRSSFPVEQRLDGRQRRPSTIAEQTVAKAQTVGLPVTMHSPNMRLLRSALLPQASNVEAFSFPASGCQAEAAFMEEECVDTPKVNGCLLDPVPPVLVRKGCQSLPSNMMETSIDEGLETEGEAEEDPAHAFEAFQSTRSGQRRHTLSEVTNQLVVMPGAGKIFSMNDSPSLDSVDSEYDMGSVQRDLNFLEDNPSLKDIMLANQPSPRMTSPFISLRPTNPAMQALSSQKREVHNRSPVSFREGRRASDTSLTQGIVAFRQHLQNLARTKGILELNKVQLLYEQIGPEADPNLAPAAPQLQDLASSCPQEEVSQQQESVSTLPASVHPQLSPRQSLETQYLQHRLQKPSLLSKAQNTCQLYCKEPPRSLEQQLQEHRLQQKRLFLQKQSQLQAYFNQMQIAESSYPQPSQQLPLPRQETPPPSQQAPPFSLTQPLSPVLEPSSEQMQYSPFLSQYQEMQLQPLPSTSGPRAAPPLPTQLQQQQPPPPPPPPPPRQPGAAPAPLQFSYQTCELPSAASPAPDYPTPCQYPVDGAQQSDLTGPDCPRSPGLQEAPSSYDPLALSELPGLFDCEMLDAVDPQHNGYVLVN
Assay [5] has as its target T3, Peroxisomal acyl-coenzyme A oxidase 3 (Homo sapiens, UniProt O15254).
T3 sequence (O15254 whole entry): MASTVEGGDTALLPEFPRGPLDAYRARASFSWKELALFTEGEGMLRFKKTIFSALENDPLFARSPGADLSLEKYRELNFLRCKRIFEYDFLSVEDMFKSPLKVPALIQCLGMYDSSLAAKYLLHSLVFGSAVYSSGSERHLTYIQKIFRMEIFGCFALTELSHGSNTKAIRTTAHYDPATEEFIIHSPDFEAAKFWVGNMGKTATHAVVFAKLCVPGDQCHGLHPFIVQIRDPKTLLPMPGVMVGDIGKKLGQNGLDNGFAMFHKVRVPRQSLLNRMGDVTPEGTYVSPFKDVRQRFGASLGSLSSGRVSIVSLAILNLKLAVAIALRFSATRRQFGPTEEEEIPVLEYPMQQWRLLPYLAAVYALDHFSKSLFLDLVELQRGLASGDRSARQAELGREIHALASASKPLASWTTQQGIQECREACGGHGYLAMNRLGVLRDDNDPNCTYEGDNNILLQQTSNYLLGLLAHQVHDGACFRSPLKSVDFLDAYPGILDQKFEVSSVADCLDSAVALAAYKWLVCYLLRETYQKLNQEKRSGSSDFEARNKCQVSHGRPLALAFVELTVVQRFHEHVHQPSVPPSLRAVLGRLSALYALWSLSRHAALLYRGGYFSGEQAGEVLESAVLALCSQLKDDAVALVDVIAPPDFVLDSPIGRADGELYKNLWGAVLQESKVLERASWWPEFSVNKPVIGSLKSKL

Assay [6] addresses Midasin (Homo sapiens, UniProt Q9NU22).
The target in assay [7] is Insulin receptor (Homo sapiens, UniProt P06213).
Insulin receptor, sequence (P06213 28-758 limits assumed): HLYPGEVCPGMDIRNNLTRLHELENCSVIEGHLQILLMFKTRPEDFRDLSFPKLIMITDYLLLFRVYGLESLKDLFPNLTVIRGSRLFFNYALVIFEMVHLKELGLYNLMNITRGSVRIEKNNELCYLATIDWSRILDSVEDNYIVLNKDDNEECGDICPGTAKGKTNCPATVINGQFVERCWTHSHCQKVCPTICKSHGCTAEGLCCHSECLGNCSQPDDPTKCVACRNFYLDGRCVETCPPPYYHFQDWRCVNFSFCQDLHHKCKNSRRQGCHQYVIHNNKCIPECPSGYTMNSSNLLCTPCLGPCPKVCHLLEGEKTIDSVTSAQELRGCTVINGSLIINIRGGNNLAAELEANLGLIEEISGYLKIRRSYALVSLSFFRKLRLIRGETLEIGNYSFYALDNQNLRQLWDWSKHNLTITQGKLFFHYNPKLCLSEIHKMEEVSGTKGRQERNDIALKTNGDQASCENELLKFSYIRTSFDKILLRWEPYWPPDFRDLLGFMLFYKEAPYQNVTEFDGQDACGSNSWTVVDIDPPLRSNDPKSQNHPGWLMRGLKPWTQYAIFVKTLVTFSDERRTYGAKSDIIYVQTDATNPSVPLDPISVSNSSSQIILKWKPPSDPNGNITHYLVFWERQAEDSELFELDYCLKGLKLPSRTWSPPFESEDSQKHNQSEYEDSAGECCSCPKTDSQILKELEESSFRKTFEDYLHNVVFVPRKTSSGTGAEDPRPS
Insulin receptor, sequence (P06213 763-1382 limits assumed): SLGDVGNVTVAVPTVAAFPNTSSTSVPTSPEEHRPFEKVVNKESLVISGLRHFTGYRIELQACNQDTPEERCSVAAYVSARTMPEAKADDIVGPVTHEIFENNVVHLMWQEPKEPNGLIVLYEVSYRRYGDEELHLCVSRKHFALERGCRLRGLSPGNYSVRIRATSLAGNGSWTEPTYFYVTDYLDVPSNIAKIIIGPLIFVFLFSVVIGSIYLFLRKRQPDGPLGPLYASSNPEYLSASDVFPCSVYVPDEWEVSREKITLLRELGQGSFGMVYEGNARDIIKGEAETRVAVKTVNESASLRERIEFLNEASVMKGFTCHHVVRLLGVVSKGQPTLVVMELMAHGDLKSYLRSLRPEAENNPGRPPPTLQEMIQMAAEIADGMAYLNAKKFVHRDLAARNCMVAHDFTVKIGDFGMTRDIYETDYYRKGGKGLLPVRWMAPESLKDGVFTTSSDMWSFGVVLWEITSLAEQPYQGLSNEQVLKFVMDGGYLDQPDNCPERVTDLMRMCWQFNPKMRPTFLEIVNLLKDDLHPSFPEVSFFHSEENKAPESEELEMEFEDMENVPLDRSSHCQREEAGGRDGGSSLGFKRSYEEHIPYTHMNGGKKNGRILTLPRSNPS
The target in assay [8] is Calcium/calmodulin-dependent protein kinase type II subunit gamma (Homo sapiens, UniProt Q13555).
Calcium/calmodulin-dependent protein kinase type II subunit gamma, sequence (Q13555 whole entry): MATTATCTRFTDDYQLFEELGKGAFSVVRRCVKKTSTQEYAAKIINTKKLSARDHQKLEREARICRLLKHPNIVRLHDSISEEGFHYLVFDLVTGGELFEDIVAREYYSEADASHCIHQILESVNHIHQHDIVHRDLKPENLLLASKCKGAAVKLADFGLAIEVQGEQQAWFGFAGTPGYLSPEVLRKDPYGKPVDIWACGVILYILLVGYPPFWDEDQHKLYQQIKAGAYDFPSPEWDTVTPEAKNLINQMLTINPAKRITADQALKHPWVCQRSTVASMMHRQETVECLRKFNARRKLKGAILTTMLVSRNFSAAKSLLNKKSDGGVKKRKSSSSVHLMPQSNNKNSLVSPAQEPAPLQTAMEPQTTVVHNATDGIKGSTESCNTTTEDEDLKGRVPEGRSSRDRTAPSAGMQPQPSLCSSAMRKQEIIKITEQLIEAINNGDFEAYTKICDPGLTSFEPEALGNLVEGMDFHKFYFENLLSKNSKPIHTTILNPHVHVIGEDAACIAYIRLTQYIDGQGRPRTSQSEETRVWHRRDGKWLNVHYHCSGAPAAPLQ
Also: in the data inactive means no Kd found up to 30 µM.

As for `O=C(Nc1cccc(Cl)c1)Nc1ncc(CCNc2ncnc3ccsc23)s1` [SNS-314], the Kd was > 30 µM (inactive) in assay [1]; > 30 µM (inactive) in assay [2]; > 30 µM (inactive) in assay [3]; > 30 µM (inactive) in assay [4]; 0.026 µM (active) in assay [5]; > 30 µM (inactive) in assay [6].

Regarding `Cc1cn(-c2cc(NC(=O)c3ccc(C)c(Nc4nccc(-c5cccnc5)n4)c3)cc(C(F)(F)F)c2)cn1` [NILOTINIB], the Kd in assay [1] was > 30 µM (inactive); in assay [2], 1.48 µM (active); in assay [3], > 30 µM (inactive); in assay [5], > 30 µM (inactive); in assay [6] it was > 30 µM (inactive).

Consider `Nc1nc(N)c2nc(-c3cccc(O)c3)c(-c3cccc(O)c3)nc2n1` [TG100-115], for which the Kd in assay [1], in assay [2], in assay [3], in assay [5] and in assay [6] was > 30 µM (inactive) in each case.

In the case of `CN1CCN(c2ccc3nc(-c4c(N)c5c(F)cccc5[nH]c4=O)[nH]c3c2)CC1` [DOVITINIB], the Kd in assay [1] was > 30 µM (inactive); in assay [2], 3.01 µM (active); in assay [3], > 30 µM (inactive); in assay [5], > 30 µM (inactive); in assay [6], > 30 µM (inactive).

Consider `Cc1cc(Nc2cc(N3CCN(C)CC3)nc(/C=C/c3ccccc3)n2)n[nH]1` [ENMD-2076], for which the Kd in assay [1], in assay [2], in assay [3], in assay [4], in assay [5] and in assay [6] was > 30 µM (inactive) each time.

In the case of `Cc1nc(N)sc1-c1ccnc(Nc2ccc(N3CCOCC3)cc2)n1` [CYC-116], the Kd is > 30 µM (inactive) in assay [1]; 0.648 µM (active) in assay [2]; > 30 µM (inactive) in assay [3]; 1.4 µM (active) in assay [4]; > 30 µM (inactive) in assay [5]; > 30 µM (inactive) in assay [6].

With `CCn1c(-c2nonc2N)nc2c(C#CC(C)(C)O)ncc(OC[C@H]3CCCNC3)c21` [GSK-690693], the Kd in assay [1], in assay [2], in assay [3], in assay [5] and in assay [6] was > 30 µM (inactive) throughout.

`CCc1cnn2c(NCc3ccc[n+]([O-])c3)cc(N3CCCC[C@H]3CCO)nc12` [DINACICLIB]: the Kd in assay [1], in assay [7], in assay [2], in assay [3], in assay [8] and in assay [4] was > 30 µM (inactive) throughout. Further, the Kd in assay [5] and in assay [6] was > 30 µM (inactive) throughout.

Regarding `OCCn1cc(-c2cnc3nnn(Cc4ccc5ncccc5c4)c3n2)cn1` [PF-04217903], the Kd in assay [1], in assay [7], in assay [2], in assay [3], in assay [8] and in assay [4] was > 30 µM (inactive) in each case. Further, the Kd in assay [5] and in assay [6] was > 30 µM (inactive) throughout.
